Measured values: publication PMC3573960 (Molecular Neurodegeneration, 2012)

Tests used:
[1] = Measured LogD; type: physicochemical
[2] = MTS cytotoxicity assay in rat primary neocortical cultures; type: cell-based; conditions: CD, primary neocortical cultures from E17 rat embryos
Description: Primary cultures were established from the neocortex of E17 rat embryos obtained from timed pregnant CD rats (Charles River Laboratories, Wilmington, MA). Following tissue dissection and trituration, the cultures were suspended in Neurobasal™ medium (Invitrogen) supplemented with 10% horse serum (Sigma-Aldrich) and 520 μM L-glutamine. Cells were plated at 50,000 cells/well in Costar 96-well poly-D-lysine-coated plates. Following incubation at 37°C and 5% CO2 for 4–5 h, the plating medium was exchanged with Neurobasal® medium with 2% B-27® supplement (Invitrogen), 520 μM of L-glutamine, and 1% penicillin-streptomycin. […] Cultures were incubated with compound for 24 h for analysis of Aβ peptides by sandwich ELISA and cytotoxicity by MTS assay.

[3] = test system: Tg2576 mice; assay: Tolerability in chronic treatment study (body weight, organs, survival); type: in vivo, mouse
Description: (§1) Male Tg2576 and WT mice were both derived from crosses of male Tg2576 mice and female B6SJLF1 mice (Taconic) and were singly housed upon arrival. […] Some animals were euthanized as described above. For histological studies, a subset of mice were euthanized by CO2 asphyxiation and transcardially perfused with cold 0.9% NaCl. The right hemispheres were immersion fixed in fresh 4% paraformaldehyde in 0.1 M phosphate buffer, pH 7.4 for 1 h, transferred to a 15% sucrose cryoprotectant for 24 h at room temperature, and on the next day, frozen in isopentane chilled by dry ice for 1 min. The left cerebral hemisphere was cut into 2 pieces, weighed, and frozen.

[4] = test system: Tg2576 mice; assay: Amorfix A4 assay of aggregated Aβ in Tg2576 mouse brain; type: in vivo; conditions: 50 weeks
Description: as §1
The A4 assay (Amorfix Life Sciences, Toronto, Canada) was employed to quantify levels of aggregated Aβ in Tg2576 mouse brains. […] Aβ was detected by immunoassay following incubation at 37°C with europium-fluorescent beads coupled to the mouse monoclonal 4G10 antibody (N-terminal Aβ, aa 1–17) and magnetic beads coupled to the antibodies 1F8 (C-terminal Aβ, aa 3–40) and 2H12 (C-terminal Aβ, aa 3–42). […] The intensity of the europium fluorescent signal was measured using time resolved fluorescence on each sample in triplicate and was taken as being directly proportional to the concentration of aggregated Aβ in the sample. […]

[5] = test system: Tg2576 mice; assay: Western blot of APP species and total Aβ in Tg2576 mouse brain; type: in vivo; conditions: 50 weeks
Description: For determination of APP α- and β-CTFs in Tg2576 mouse brain, hemisphere samples were thawed in ice-cold homogenization buffer (150 mg of tissue/mL, 50 mM Tris and 150 mM NaCl, pH 7.4) with protease inhibitor cocktail (Mini Complete™, Roche Applied Science, Penzberg, Germany). Homogenized samples were spun at 435,000 g for 50 min at 4°C. The supernatant was discarded and the pellet resuspended in the same volume of homogenization buffer containing 0.5% Triton®-X 100, 1% deoxycholate, and 3% SDS. The pellets were triturated with a pipette until resuspended and incubated on a rotator for 1 h at 4°C. The samples were then centrifuged at 435,000 g for 50 min at 4°C and the detergent-soluble supernatant was collected. Protein concentration for membrane (detergent soluble) fraction was determined using the BCA method (Pierce, Rockford, IL). Thirty micrograms of total protein were separated on a Tricine 10-20% gel (Invitrogen) and transferred to a nitrocellulose membrane. Blots were probed with an anti-APP-CTF antibody (Sigma-Aldrich) or anti-Aβ antibody (clone 6E10) followed by incubation with IRDye secondary antibodies (Li-Cor Biosciences).
as §1

[6] = test system: Aph1AL containing γ-secretase complexes; assay: Cell-free AICD production from APP β-CTF (Western blot); type: biochemical, murine; conditions: up to 100 μM
Description: DAPT was used as a reference positive control for the assay. For each assay condition, a 5-μL microsomal fraction, containing 1% CHAPSO (3-[(3-cholamidopropyl)dimethylammonio]-2-hydroxy-1-propanesulfonate) from murine embryonic fibroblasts (MEF) lacking the Aph-1A, Aph-1B, and Aph-1C genes (triple knock out) and rescued with Aph-1AL, was prepared in a reaction mixture of 5 μL substrate (recombinant APP β-CTF 3-Flag-tagged) at 0.8 μM, 0.0125% phosphatidylethanolamine, 0.1%, phosphatidylcholine, 0.05% sphingomyelin, and 8.9 μL PIPES (piperazine-N,N′-bis[−ethanesulfonic acid]) buffer. […] For detection of AICD, one-half of the reaction mixture was purified by a methanol-chloroform extraction in order to remove lipids and hydrophobic proteins (e.g., APP β-CTF). This purified fraction was further analyzed by SDS-PAGE and Western blotting. AICD was detected with an ANTI-FLAG® antibody (Sigma-Aldrich). The other half of the reaction mixture was used to analyze the levels of Aβ1-40 and Aβ1-42 by AlphaLisa (Perkin Elmer, Waltham, MA).

[7] = test system: HEK293 cells; assay: CellTiter-Blue cell viability in HEK293 cells expressing NotchΔE; type: cell-based, human; conditions: up to 30 μM
[8] = test system: γ-secretase; assay: H4-APP751 cell-based assay for secreted Aβ peptides (sandwich ELISA); design: species or system human; conditions: H4-APP751 cells, up to 3 μM
Description: Human neuroglioma H4 cells (ATCC, Manassas, VA) were transfected with a pcDNA3.1 (Invitrogen, Carlsbad, CA) plasmid expressing human wild type APP751 cDNA; and a stable cell line was generated using G418 (Invitrogen) selection [55]. Prior to experimentation, H4-APP751 cells were maintained in Dulbecco’s modified Eagle’s high glucose medium with 10% fetal bovine serum, 1% penicillin-streptomycin, 2 mM L-glutamine, and 0.4 mg/mL G418. All culture reagents were from Invitrogen.
Plates were incubated overnight (16–18 h) and supernatant was removed for quantification of Aβ peptides by sandwich ELISA. Cytotoxicity was evaluated using CellTiter 96® AQueous One Solution Cell Proliferation Assay (MTS Assay, Promega, Madison, WI) according to the manufacturer’s protocol.
Aβ peptide levels were quantified by sandwich ELISA. […]
Freshly collected samples of cultured cell supernatant or synthetic peptides (American Peptide Co., Sunnyvale, CA or California Peptide Research, Inc., Napa, CA) for standard curves were diluted with media, and loaded into anti-Aβ antibody-coated plates and incubated at 4°C for about 24 h. Aβ peptides were detected with the 4G8 antibody (Aβ, aa 17–24) conjugated to horseradish peroxidase (Covance, Inc., Princeton, NJ), and SureBlue 3,3’,5,5’-tetramethylbenzidine (TMB) peroxidase substrate (KPL, Inc., Gaithersburg, MA). […]

[9] = test system: Aph1AL containing γ-secretase complexes; assay: Cell-free γ-secretase assay, Aβ1-40 and Aβ1-42 by AlphaLisa; type: biochemical, murine
Description: DAPT was used as a reference positive control for the assay. For each assay condition, a 5-μL microsomal fraction, containing 1% CHAPSO (3-[(3-cholamidopropyl)dimethylammonio]-2-hydroxy-1-propanesulfonate) from murine embryonic fibroblasts (MEF) lacking the Aph-1A, Aph-1B, and Aph-1C genes [60] […] The other half of the reaction mixture was used to analyze the levels of Aβ1-40 and Aβ1-42 by AlphaLisa (Perkin Elmer, Waltham, MA).

[10] = test system: γ-secretase; assay: APP CTF accumulation in H4-APP751 cell lysates (Western blot); type: cell-based, human; conditions: H4-APP751 cells, 16 h
Description: Cells were lysed in situ and the resulting lysate cleared of nuclei by centrifugation, as described elsewhere. Samples were fractionated by SDS-PAGE on a 12% NuPage gel (Invitrogen), transferred to a nitrocellulose membrane, and immunoblotted with an anti-APP-CTF antibody (Sigma-Aldrich).

O=C(O)[C@H](CC1CCC1)c1cc(Cl)c(OCC(F)(F)F)c(-c2ccc(C(F)(F)F)cc2)c1 [EVP-0015962, (R)-2-(5-chloro-6-(2,2,2-trifluoroethoxy)-4’-(trifluoromethyl)biphenyl-3-yl)-3-cyclobutylpropanoic acid]
logD [1]: 3.88 | IC50 at 24 h [2]: > 30 µM | mortality (percent of group lost) ([3]; Tg2576 mice, 60 mg/kg/day, 50 weeks): 25% | body weight among the treatment groups ([3]; Tg2576 mice, 20 or 60 mg/kg/day, 50 weeks): no significant differences | effects on intestinal goblet cells or any other organ system examined ([3]; satellite animals, up to 60 mg/kg/day, 11 weeks): no evidence of effects | reduction in aggregated Aβ ([4]; 20 mg/kg/day): 19% | reduction in aggregated Aβ compared to the control diet group ([4]; 60 mg/kg/day): 73% | reduction in total Aβ by Western blot vs control diet ([5]; 20 mg/kg/day): 42% | reduction in total Aβ by Western blot vs control diet ([5]; 60 mg/kg/day): 81% | levels of full length APP, β-CTF, and α-CTF in brain ([5]; 20 or 60 mg/kg/day): no increases | production of AICD from APP β-CTF [6]: did not prevent | cell viability [7]: did not affect | levels of AβTotal [8]: remained unchanged | levels of Aβ40 in the cell-free assay [9]: without affecting | Full length APP ([10]; 1 nM to 10 μM): not altered | accumulation of APP α- or β-CTFs ([10]; concentrations up to 10 μM): did not cause the accumulation
